Source: US9511019B2, “Pharmaceutical compositions for treating IBD” (NORDIC PHARMA, priority 2009, dated 2016)

System: TNBS colitis
Assay: TNBS colitis in mice, macroscopic lesions by Wallace criteria
Format: in vivo, C57b16 mice
Conditions: for Wallace score (macroscopic lesions, scale 0 to 10): TNBS colitic mice, daily intrarectal administration from 3 days before to 4 days after induction, 5-ASA 0.5 mg, PMSB 2.34 mg/kg/day, untreated control 3.4; for action percentage in comparison to the Wallace score of untreated control: Wallace score 3.4 = 0% action, score 0 = 100% action
Description: Induction of TNBS Colitis and Evaluation of Macroscopic Lesions in the Colitis after Administration of 5-ASA, PMSB, and Synergistic Combination of 5-ASA and PMSB.
Animal experiments were performed in accredited establishments according to governmental guidelines.
Colitis induction was conducted on C57b16 mice aged of 6 weeks old. They were anesthetized for 90-120 minutes before they received intrarectal administration of TNBS (trinitrobenzene sulphonic acid) (40 μl, 150 mg/kg) dissolved in a 1:1 mixture of 0.9% NaCl with 100% ethanol. Control mice received a 1:1 mixture of 0.9% NaCl with 100% ethanol or a saline solution using the same technique. Animals were sacrificed 4 days after TNBS administration. The anti-inflammatory effect of 5-ASA and steroid was evaluated by daily administration of these compounds by intrarectal route in a final volume of 50 μl, starting 3 days before the colitis induction and during all the experiment (4 days after colitis induction). Dosage amount of 5-ASA was 0.5 mg (50 μl of 1 g/100 ml stock), 65 mM and the dosage amount of PMSB was 2.34 mg/kg/day.
The macroscopic assessments of colitis were performed blindly by two investigators. The colon of each mouse was examined under a dissecting microscope (magnification, ×5), to evaluate the macroscopic lesions according to the Wallace criteria. The score rates macroscopic lesions on a scale of from 0 to 10 based on the features reflecting inflammation, such as hyperaemia, thickening of the bowel, and extent of ulceration. The Wallace scale is defined as follows. A score of 0 represents an absence of inflammation, a score of 1, a hyperaemia without ulcerations, a score of 2 a hyperaemia with a thickening of the mucosa without ulcerations, a score of 3, one ulceration without thickening of the colonic wall, a score of 4, two or more of ulcerative or inflammatory sites, a score of 5, two or more ulcerative and inflammatory sites with an extent of more than 1 cm, and for a score of from 6 to 10, an ulcerative or inflammatory site of growing size of from 2 to 6 cm.
A score of Wallace of 3.4 thus indicates an action of 0% and a score of 0, (no lesion) indicates 100% action. […] The action that the active ingredients would be expected to have in combination was calculated according to the Colby formula, and a comparison in the actions was then observed.
The Colby formula is E=X+Y−(XxY)/100, wherein E is the expected degree of action, expressed in %, when the active ingredients 5-ASA and prednisolone PMSB are used in combination. […] It is the degree of action converted from the Wallace score obtained for the A group. […] It is the degree of action converted from the Wallace score obtained for the P group.

| Structure (SMILES) | Wallace score (macroscopic lesions, scale 0 to 10) | action percentage in comparison to the Wallace score of untreated control |
| --- | --- | --- |
| Nc1ccc(O)c(C(=O)O)c1 [Formulation 5-ASA, 5-aminosalicylic acid] | 1.25 | 63% |
| C[C@]12C=CC(=O)C=C1CC[C@@H]1[C@@H]2[C@@H](O)C[C@@]2(C)[C@H]1CC[C@]2(O)C(=O)COC(=O)c1cccc(S(=O)(=O)O)c1 [PMSB, prednisolone metasulfobenzoate] | 1.83 | 46% |
